Reference: patent EP1897937A1, “Method of culturing NPCs” (NeuroProgen GmbH Leipzig, priority 2006, dated 2008)
Where two headings read alike, the source gives them in different places.

What was measured:
ERK1/2 = ERK1/2 (MAPK) phosphorylation by Western blot; type: cell-based, human
Procedure: (§1) To determine long-term proliferation, hmNPCs were plated and expanded for 2 passages with or without addition of various agents (see below) to the custom expansion media containing the growth factors EGF and FGF2. Different fetal midbrain tissues were included in this study. At the end of the proliferation period, differentiation of hmNPCs was induced via replacement of expansion media with mitogen-free media containing 1% FCS, 5 µM forskoline (Sigma-Aldrich Chemie GmbH Munich, Germany), and 100 pg/ml IL-1β (Sigma). The differentiation and expansion media were supplemented with different drugs as appropriate. Prior to immunocytochemistry or protein extraction, hmNPCs were allowed to differentiate for 1 week. To determine short-term proliferation via Ki67 immunostaining, the cells were seeded into 24-well plates (70,000 cells/well) and left overnight to rest. P2 receptor agonists (ATP, UTP, ATP + UTP, ADP, ADPβS) were supplied daily for 5 consecutive days. Ki67/nestin double-positive cells were counted in 8 randomly selected fields of nucleotide-treated or untreated samples. For the assessment of MAPK phosphorylation the cells were kept free of mitogens for 2 d prior to addition of the MEK-inhibitor in expansion media. In addition, the MEK-inhibitor was added during the differentiation period 15 min before UTP administration.
(§2) UTP, UDP, ATP, ADP, ADPβS and suramin were purchased from Sigma (Sigma-Aldrich Chemie GmbH Munich, Germany). UTP and UDP were applied at different concentrations (1 µM, 10 µM, 100 µM), ATP at 100 µM, ADP at 100 µM, and ADPβS at100 µM. During expansion of the cells, the nucleotides were renewed once a week with every media change, unless otherwise stated. They were applied once at the beginning of the differentiation period. The P2 receptor antagonist suramin (10 µM) was added to expansion media 30 min prior to addition of UTP (100 µM). The stock solution of the MEK1/2 inhibitor U0126 (Promega Corporation, Mannheim, Germany) was prepared in dimethyl sulfoxide (DMSO) at a concentration of 10 mM. The stock solution was then diluted in 0.1 M PBS to obtain a concentration of 1 mM. MEK inhibitor (final concentration 10 µM) was added to mitogen-free expansion media, 15 min before UTP treatment (1 µM) of hmNPCs.
In order to prepare protein extracts, hmNPCs were collected, washed with ice-cold PBS and lysed in buffer [10 mM HEPES-KOH (pH 7.9), 10 mM KCI, 1.5 mM MgCl2, 0.1% NP-40], supplemented with protease inhibitor cocktail (Roche). After a brief centrifugation at 4°C/10 000×g, protein concentrations and protein yield from extracts were determined using the Bradford method (Bio-Rad, Hercules, CA, USA). To preserve the phosphorylation state of proteins, extracts for the MAPK experiment were obtained using the PhosphoSafe™ extraction reagent containing phophatase inhibitors (Novagen). […] Membranes were blocked with 5% (wt/vol) nonfat dry milk in PBS-T (PBS, 0.1% (vol/vol) Tween 20) for 2 h at room temperature and subsequently incubated with the desired primary antibody (diluted in PBS containing 5% non-fat milk and 0.1% Tween 20) overnight at 4 °C with gentle agitation. The membrane was incubated with horseradish peroxidase-coupled secondary antibody for 1 h at room temperature. […] The chemiluminescence was quantified using the AIDA, two-dimensional densitometry software (Raytest lsotopenmeb, Straubenhardt, Germany).

hmNPCs = test: Dopaminergic differentiation: counting of TH-positive cells by immunocytochemistry; type: cell-based, human
Procedure: as §1, §2
Expanded or one week differentiated hmNPCs were fixed with 4% paraformaldehyde in PBS for 10 min at room temperature and washed with PBS, counterstained with the DNA-binding dye 4'-6-Diamidino-2-phenylindole (DAPI, 2 µg/ml in PBS) for 15 min at room temperature, washed twice in PBS followed by incubation in blocking buffer (10% FCS, 0.2% Triton-X 100 in PBS, pH 7.2) for 30 min at room temperature. After incubation with a primary antibody (over night at 4°C in blocking buffer), the cells were incubated with fluorescent secondary antibodies, Alexa Fluor® 488 conjugate or Alexa Fluor® 594 conjugate (Molecular Probes, Eugene, USA). Cover-slips were mounted onto glass slides and examined under a fluorescence microscope (Zeiss Axiovert 200). Acquisition of the cells was performed using the Image-analysis software AxioVision 4 (Carl Zeiss AG, Jena, Germany). The following primary antibodies were used for immunofluorescence: rabbit polyclonal anti-β-tubulin III (anti-Tuj1) antibody, rabbit polyclonal anti-tyrosine hydroxylase antibody , mouse monoclonal anti-nestin antibody (Pharmingen, San Diego, CA, USA), rabbit polyclonal anti-Ki67 antigen antibody (Novocastra Laboratories Ltd, Newcastle upon Tyne, UK). Estimation of the TH-positive cell numbers was performed by counting of cells among approximately 1000 differentiated cells in total within 6 randomly selected fields.

Question: `O=c1ccn([C@@H]2O[C@H](COP(=O)(O)OP(=O)(O)OP(=O)(O)O)[C@@H](O)[C@H]2O)c(=O)[nH]1` [UTP, uridine 5'-triphosphate] was tested. Which “ERK1/2 (MAPK) phosphorylation” value (ERK1/2; 1 µM, 30 min, expansion media, mitogen-free) did it give?
Answer: phosphorylated

Question: And the “expression of phosphorylated ERK1/2” value (ERK1/2; 100 µM, one week of differentiation)?
Answer: increased

Question: What about the “contribution of TH-immunopositive cells to the total of Tuj1-immunopositive cells” value (hmNPCs; 100 µM, 2 weeks of expansion followed by 1 week of differentiation) of the same compound?
Answer: increased

Question: What about the activity at 100 µM (hmNPCs; Homo sapiens, 168 h, 100 µM each, once, only during the differentiation period of one week, read-out: number of TH-positive (dopaminergic) cells as compared to control) of the same compound?
Answer: 239 ± 27%

Question: What about the activity at 1 µM (hmNPCs; Homo sapiens, 1 µM, 2 weeks of expansion and one week of differentiation, read-out: number of TH-positive cells) of the same compound?
Answer: 211 ± 30%

Question: And the activity at 100 µM (hmNPCs; Homo sapiens, 100 µM during proliferation and differentiation, read-out: number of TH-positive cells)?
Answer: 267 ± 20%
